In one experiment the test system is circulating lymphocytes. Briefly: Lymphopenia assay: measurement of circulating lymphocytes after oral gavage. The class given is in vivo, Mice (C57bl/6 male). Particulars: for ED50: Mus musculus, Lymphocyte, po, read-out: Lymphopenia (ED50 mg/kg). The method, then:
Measurement of circulating lymphocytes: Compounds were dissolved in 30% HPCD. Mice (C57bl/6 male, 6-10 week-old) were administered 0.5 and 5 mg/kg of a compound via oral gavage. 30% HPCD was included as a negative control.
Blood was collected from the retro-orbital sinus 5 and 24 hours after drug administration under short isoflurane anesthesia. Whole blood samples were subjected to hematology analysis. Peripheral lymphocyte counts were determined using an automated analyzer (HEMAVET™ 3700). Three mice were used to assess the lymphocyte depletion activity of each compound screened.

Another experiment has as its target T1, human S1P3 receptor (Homo sapiens, UniProt Q99500).
T1 construct: host or cells: recombinant CHEM cells
Briefly: Calcium mobilization assay, recombinant CHEM cells expressing human S1P3. Type of experiment: cell-based. The note with it: FLIPR. As to the method:
Compounds that were not specific for the S1P1 receptor, can have activity for other S1P receptor subtypes, e.g., S1P2, S1P3, S1P4, or S1P5, and can cause undesirable side effects. Accordingly, compounds were tested to identify those that were specific for S1P1 activity and had little or no activity, or are antagonists of, S1P3 activity. Accordingly, the test compounds were tested in a calcium mobilization assay to determine agonist activity at either the human S1P1 or human S1P3 receptor, and antagonist activity only at the human S1P3 receptor. The procedure was essentially as described (with modifications described below) in Davis et al. (2005) Journal of Biological Chemistry, vol. 280, pp. 9833-9841, which is incorporated by reference in its entirety. Calcium mobilization assays were performed in recombinant CHEM cells expressing human S1P1 or S1P3 purchased from Millipore (Billerica, Mass.). To detect free intracellular calcium, S1P1 or S1P3 cells were loaded with FLIPR Calcium 4 dye from Molecular Devices (Sunnyvale, Calif.). Cells were imagined for calcium mobilization using a FLIPR^TETRA equipped with a 96-well dispense head.

Where [1] appears, read: mice, oral gavage 0.5 and 5 mg/kg in 30% HPCD, blood 5 and 24 hours after administration.

Where two headings read alike, the source gives them in different places.

T1 sequence (Q99500 whole entry): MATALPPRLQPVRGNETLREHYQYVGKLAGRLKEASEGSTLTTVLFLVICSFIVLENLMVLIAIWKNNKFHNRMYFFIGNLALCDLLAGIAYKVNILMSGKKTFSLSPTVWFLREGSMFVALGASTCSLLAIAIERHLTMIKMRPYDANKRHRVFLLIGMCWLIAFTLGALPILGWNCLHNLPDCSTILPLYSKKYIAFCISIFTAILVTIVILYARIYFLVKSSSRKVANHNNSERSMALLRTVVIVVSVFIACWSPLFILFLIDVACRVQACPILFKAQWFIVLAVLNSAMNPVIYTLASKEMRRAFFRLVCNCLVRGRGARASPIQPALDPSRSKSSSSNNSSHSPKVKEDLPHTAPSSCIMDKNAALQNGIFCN

Regarding `CC(N)(CO)c1ccc2cc(O[C@H]3CC[C@H](C(C)(C)C)CC3)ccc2n1` (relative stereo) [Example 18, 2-Amino-2-[6-(trans-4-tert-butyl-cyclohexyloxy)-quinolin-2-yl]-propan-1-ol], in the experiment on circulating lymphocytes (setting [1]), the “Lymphopenia (ED50 mg/kg)” value is 0.5 to 5 mg/kg. Turning to `CC(N)(CO)c1ccc2c(C(F)(F)F)c(O[C@H]3CC[C@H](C(C)(C)C)CC3)ccc2n1` (relative stereo) [Example 21, 2-Amino-2-[6-(trans-4-tert-butyl-cyclohexyloxy)-5-trifluoromethyl-quinolin-2-yl]-propan-1-ol], the ED50 in the experiment with circulating lymphocytes was under 0.5 mg/kg. Take `CC(N)(CO)c1ccc2cc(O[C@H]3CC[C@H](C(C)(C)C)CC3)ccc2n1` (relative stereo) [Example 23, 2-Amino-2-[6-(trans-4-tert-butyl-cyclohexyloxy)-quinolin-2-yl]-propan-1-ol]: the “Lymphopenia (ED50 mg/kg)” value in the experiment with circulating lymphocytes (setting [1]) is recorded as under 0.5 mg/kg. Still for that read-out and setting: for `CC(N)(CO)c1ccc2cc(O[C@H]3CC[C@H](C(C)(C)C)CC3)ccc2n1` (relative stereo) [Example 24, 2-Amino-2-[6-(trans-4-tert-butyl-cyclohexyloxy)-quinolin-2-yl]-propan-1-ol] the value was over 5 mg/kg; for `CC(N)(CO)c1ccc2c(C(F)(F)F)c(O[C@H]3CC[C@H](C(C)(C)C)CC3)ccc2n1` (relative stereo) [Example 26, 2-Amino-2-[6-(trans-4-tert-butyl-cyclohexyloxy)-5-trifluoromethyl-quinolin-2-yl]-propan-1-ol], under 0.5 mg/kg.

With `CC(N)(CO)c1ccc2c(C(F)(F)F)c(O[C@H]3CC[C@H](C(C)(C)C)CC3)ccc2n1` (relative stereo) [Example 27, 2-Amino-2-[6-(trans-4-tert-butyl-cyclohexyloxy)-5-trifluoromethyl-quinolin-2-yl]-propan-1-ol], the “Lymphopenia (ED50 mg/kg)” value with circulating lymphocytes (setting [1]) was over 5 mg/kg. On to `CC(N)(CO)c1ccc2nc(O[C@H]3CC[C@H](C(C)(C)C)CC3)ccc2c1` (relative stereo) [Example 78, 2-amino-2-(2-(trans-4-tert-butylcyclohexyloxy)quinolin-6-yl)propan-1-ol], for which, in the experiment with circulating lymphocytes (setting [1]), the ED50 is over 5 mg/kg. Still for that read-out and setting: the value for `CC(C)(C)[C@H]1CC[C@H](Oc2ccc3cc([C@](C)(N)CO)ccc3n2)CC1` (single isomer, unassigned) [Example 79A] was over 5 mg/kg; that for `CC(C)(C)[C@H]1CC[C@H](Oc2ccc3cc([C@@](C)(N)CO)ccc3n2)CC1` (single isomer, unassigned) [Example 79] was over 5 mg/kg; that for `CCCCCCCOc1ccc2nc(C(C)(N)CO)ccc2c1` (stereo not shown) [Example 38, 2-amino-2-(6-(heptyloxy)quinolin-2-yl)propan-1-ol] was 0.5 to 5 mg/kg. Regarding `CCCCCCCOc1ccc2nc([C@@](C)(N)CO)ncc2c1` [Example 50, (R)-2-Amino-2-(6-heptyloxyquinazolin-2-yl)propan-1-ol], in the experiment on circulating lymphocytes (setting [1]), the ED50 was 0.5 to 5 mg/kg. On the same count and under the same terms, for `CC(C)(C)[C@H]1CC[C@H](Oc2ccc3nc([C@@](C)(N)CO)ncc3c2C(F)(F)F)CC1` [Example 61, (R)-2-Amino-2-(6-(trans-4-tert-butylcyclohexyloxy)-5-(trifluoromethyl)quinazolin-2-yl)propan-1-ol] the value was 0.5 to 5 mg/kg; for `CC(C)(C)[C@H]1CC[C@H](Oc2ccc3c(c2C(F)(F)F)CC[C@H]([C@@](C)(N)CO)C3)CC1` [Example 71, (R)-2-amino-2-((S)-6-(trans-4-tert-butylcyclohexyloxy)-5-(trifluoromethyl)-1,2,3,4-tetrahydronaphthalen-2-yl)propan-1-ol], under 0.5 mg/kg. On the same count and under the same terms, for `CC(C)(C)[C@H]1CC[C@H](Oc2cc3c(cc2C(F)(F)F)C[C@@H]([C@@](C)(N)CO)CC3)CC1` [Example 71A, (R)-2-amino-2-((S)-6-(trans-4-tert-butylcyclohexyloxy)-7-(trifluoromethyl)-1,2,3,4-tetrahydronaphthalen-2-yl)propan-1-ol] the value was over 5 mg/kg; for `CCCCCCCOc1ccc2cc(C(C)(N)CO)cnc2c1` (stereo not shown) [Example 91, 2-amino-2-(7-(heptyloxy)quinolin-3-yl)propan-1-ol], 0.5 to 5 mg/kg.

As to `CCCCCCCCc1ccc2nc(C(C)(N)CO)sc2c1` (stereo not shown) [Example 99, 2-amino-2-(6-octylbenzo[d]thiazol-2-yl)propan-1-ol], the ED50 in the experiment on circulating lymphocytes (setting [1]) is over 5 mg/kg.

Turning to `CCCCCCCOc1ccc2cc(C(C)(N)CO)ccc2n1` (stereo not shown) [Example 103, 2-amino-2-(2-(heptyloxy)quinolin-6-yl)propan-1-ol], the ED50 in the experiment with circulating lymphocytes (setting [1]) fell in the range of 0.5 to 5 mg/kg. On the same count and under the same terms, for `NC(CO)(CO)C1CCc2cc(Sc3cccc(OCc4ccccc4)c3)ccc2C1` (stereo not shown) [Example 113, 2-Amino-2-(6-(3-(benzyloxy)phenylthio)-1,2,3,4-tetrahydronaphthalen-2-yl)propane-1,3-diol] the value was under 0.5 mg/kg.

In the case of `CCCCCCCCCCCCC/C=C/[C@@H](O)[C@@H](N)COP(=O)(O)O` [Example S1P, Sphingosine 1-phosphate], the S1P3 agonist activity result on human S1P3 receptor is on record as “full S1P3 agonist”.
